These results are taken from patent US9533982B2, “Substituted bicyclic heteroaryl carboxamide analogs as mGluR5 negative allosteric modulators” (Vanderbilt University, priority 2014, dated 2017).

A value given as a limit tells only on which side of the number the result lay.

One data set addresses T1, rat mGluR5 (Rattus norvegicus, UniProt P31424).
T1 construct: expressed in transfected cells
Kind of data set: mGluR5 activity, cell-based Ca2+ fluorescence (FDSS) assay in human embryonic kidney cells transfected with rat mGluR5. To be noted: HEK cells transfected with rat mGluR5; antagonism of EC80 glutamate response; single experiment or average of two where no error is given. As to the method:
Human embryonic kidney (HEK) cells transfected with rat or human mGluR5 were plated in clear bottom assay plates for assay in a Functional Drug Screening System (FDSS). The cells were loaded with a Ca^2+-sensitive fluorescent dye (e.g., Fluo-4), and the plates were washed and placed in the FDSS instrument. Test compound was applied to cells 3 seconds after baseline readings were taken. Cells were incubated with the test compounds for 140 seconds and then stimulated with an EC20 concentration of an mGluR5 agonist (e.g., glutamate, 3,5-dihydroxyphenylglycine, or quisqualate); 60-80 seconds later an EC80 concentration of agonist was added and readings taken for an additional 40 seconds. Data were collected at 1 Hz. […] Concentration response curves were generated using a four parameter logistical equation.
The above described assay was operated in two modes. In the first mode (utilizing a triple add protocol), a range of concentrations of the present compounds were added to cells, followed by two single fixed concentrations of agonist (EC20 followed by EC80). If a compound acted as a potentiator, an EC50 value for potentiation of the EC20 response and a maximum extent of potentiation by the compound at this concentration of agonist was determined by non-linear curve fitting. If a compound acted as an antagonist, an IC50 value for antagonism of the EC80 response and a maximum extent of antagonism by the compound at this concentration of agonist was determined by non-linear curve fitting. In the second mode (utilizing a double add protocol), several fixed concentrations of the present compounds were added to various wells on a plate, followed by a range of concentrations of agonist for each concentration of present compound; the EC50 values for the agonist at each concentration of compound were determined by nonlinear curve fitting. A decrease in the EC50 value of the agonist with increasing concentrations of the present compounds (a leftward shift of the agonist concentration-response curve) is an indication of the degree of mGluR5 positive allosteric modulation at a given concentration of the present compound. An increase in the EC50 value of the agonist with increasing concentrations of the present compounds (a rightward shift of the agonist concentration response curve) is an indication of the degree of mGluR5 antagonism at a given concentration of the present compound. The second mode also indicates whether the present compounds also affect the maximum response to mGluR5 to agonists.
The mGluR5 activity was determined using the metabotropic glutamate receptor activity assays in human embryonic kidney cells as described herein, wherein the human embryonic kidney cells were transfected with rat mGluR5. The mGluR5 activity data for some compounds are shown as the average of at least three experiments with the standard error in these cases. If no error is indicated for the mGluR5 activity, the values given represent the results from a single experiment or the average of two experiments. The compounds in Table 1 were synthesized with methods identical or analogous to those shown herein. The requisite starting materials were commercially available, described in the literature, or readily synthesized by one skilled in the art of organic synthesis.

Data set [1] relates to N-methyl-D-aspartate (NMDA) receptor. Particulars: at higher concentrations; cited from earlier work.
The target of a further data set is mGluR4 (Homo sapiens, UniProt Q14833). To be noted: cited from earlier work.
Data set [2] has as its system marble burying activity in mice. To be noted: literature reports; cited from earlier work.
The target of another data set is T2, cytochrome P450 1A2 (Homo sapiens, UniProt P05177).
T2 sequence (P05177 1-516): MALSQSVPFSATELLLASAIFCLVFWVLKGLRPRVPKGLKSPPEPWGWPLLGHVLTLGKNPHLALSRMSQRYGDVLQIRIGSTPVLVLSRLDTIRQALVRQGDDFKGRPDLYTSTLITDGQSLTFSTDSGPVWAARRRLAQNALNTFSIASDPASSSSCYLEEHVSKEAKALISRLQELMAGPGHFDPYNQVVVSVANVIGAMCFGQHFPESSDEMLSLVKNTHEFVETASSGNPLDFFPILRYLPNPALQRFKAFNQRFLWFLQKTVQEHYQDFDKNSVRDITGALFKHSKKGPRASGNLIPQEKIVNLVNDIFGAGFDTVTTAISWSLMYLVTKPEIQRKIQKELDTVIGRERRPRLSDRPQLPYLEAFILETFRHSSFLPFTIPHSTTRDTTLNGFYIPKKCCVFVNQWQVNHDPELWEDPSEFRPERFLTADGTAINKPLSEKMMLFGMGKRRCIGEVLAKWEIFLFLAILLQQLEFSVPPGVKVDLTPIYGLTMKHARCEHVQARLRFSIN
To be noted: cited from earlier work.

The conditions of data set [3]: intravenous administration to rhesus monkeys; cited from earlier work.

T1 sequence (P31424 21-1171 isoform P31424-2 limits assumed): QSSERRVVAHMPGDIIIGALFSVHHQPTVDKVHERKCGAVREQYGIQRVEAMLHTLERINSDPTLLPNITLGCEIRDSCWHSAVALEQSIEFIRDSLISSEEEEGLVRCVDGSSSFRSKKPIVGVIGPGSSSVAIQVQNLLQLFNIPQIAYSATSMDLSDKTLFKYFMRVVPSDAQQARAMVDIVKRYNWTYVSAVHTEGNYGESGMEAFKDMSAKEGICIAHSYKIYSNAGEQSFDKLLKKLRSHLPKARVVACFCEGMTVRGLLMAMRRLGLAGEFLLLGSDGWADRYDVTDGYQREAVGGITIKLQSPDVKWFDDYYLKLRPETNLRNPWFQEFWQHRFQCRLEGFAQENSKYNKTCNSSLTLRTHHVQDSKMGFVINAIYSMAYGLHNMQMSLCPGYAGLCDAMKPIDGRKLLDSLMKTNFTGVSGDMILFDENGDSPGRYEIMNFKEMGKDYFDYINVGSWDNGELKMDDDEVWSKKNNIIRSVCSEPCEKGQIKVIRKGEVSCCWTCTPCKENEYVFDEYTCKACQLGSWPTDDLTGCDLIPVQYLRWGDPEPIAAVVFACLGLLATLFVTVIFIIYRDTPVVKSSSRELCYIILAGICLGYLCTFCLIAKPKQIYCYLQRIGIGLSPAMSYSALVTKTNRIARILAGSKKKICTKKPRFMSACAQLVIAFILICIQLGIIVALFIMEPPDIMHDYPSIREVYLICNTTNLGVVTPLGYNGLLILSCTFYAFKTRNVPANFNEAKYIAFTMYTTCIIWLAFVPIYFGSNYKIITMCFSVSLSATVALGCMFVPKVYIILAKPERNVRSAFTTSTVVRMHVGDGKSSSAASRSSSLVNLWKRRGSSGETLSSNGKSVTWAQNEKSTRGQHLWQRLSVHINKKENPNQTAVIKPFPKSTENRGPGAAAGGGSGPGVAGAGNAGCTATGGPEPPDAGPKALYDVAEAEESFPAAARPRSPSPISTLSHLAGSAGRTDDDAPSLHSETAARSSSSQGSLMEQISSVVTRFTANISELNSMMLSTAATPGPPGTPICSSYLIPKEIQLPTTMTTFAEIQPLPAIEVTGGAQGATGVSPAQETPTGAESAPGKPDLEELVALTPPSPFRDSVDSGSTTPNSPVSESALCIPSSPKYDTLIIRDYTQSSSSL
mGluR4, sequence (Q14833 33-912): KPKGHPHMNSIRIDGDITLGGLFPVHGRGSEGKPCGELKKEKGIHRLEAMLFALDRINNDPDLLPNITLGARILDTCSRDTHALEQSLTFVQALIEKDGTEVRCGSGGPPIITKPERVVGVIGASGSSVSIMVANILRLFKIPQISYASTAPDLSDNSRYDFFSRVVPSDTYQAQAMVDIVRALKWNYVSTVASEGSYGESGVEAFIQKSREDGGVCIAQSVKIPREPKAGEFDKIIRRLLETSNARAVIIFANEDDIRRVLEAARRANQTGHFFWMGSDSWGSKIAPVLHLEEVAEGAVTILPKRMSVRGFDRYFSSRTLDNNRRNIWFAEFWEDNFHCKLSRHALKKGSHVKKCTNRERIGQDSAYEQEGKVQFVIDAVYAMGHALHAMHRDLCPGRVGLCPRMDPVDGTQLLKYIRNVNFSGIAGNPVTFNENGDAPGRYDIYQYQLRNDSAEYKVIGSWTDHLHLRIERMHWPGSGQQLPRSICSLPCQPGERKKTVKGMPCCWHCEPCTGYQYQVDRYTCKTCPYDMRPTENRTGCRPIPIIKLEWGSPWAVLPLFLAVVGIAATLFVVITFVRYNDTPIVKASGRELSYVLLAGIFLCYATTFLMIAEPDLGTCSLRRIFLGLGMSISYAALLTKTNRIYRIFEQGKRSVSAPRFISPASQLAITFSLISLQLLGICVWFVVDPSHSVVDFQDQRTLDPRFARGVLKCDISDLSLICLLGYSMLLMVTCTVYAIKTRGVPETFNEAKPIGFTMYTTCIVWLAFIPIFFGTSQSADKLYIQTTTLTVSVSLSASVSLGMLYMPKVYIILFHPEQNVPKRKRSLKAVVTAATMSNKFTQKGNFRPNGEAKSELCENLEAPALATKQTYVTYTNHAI

As for `O=C(Nc1ccc(F)cn1)c1cc(C(F)c2cncnc2)cc2nccnc12` (stereo not drawn), on rat mGluR5, the IC50 is more than 10000 nM.
For `COC(c1cncnc1)c1cc(C(=O)Nc2ccc(F)cn2)c2ncccc2c1` (stereo not drawn), the IC50 at rat mGluR5 stood at 890 nM.
As for `Cc1cccc(NC(=O)c2cc(C(=O)c3cncnc3)cc3nccnc23)n1`, the IC50 on rat mGluR5 stood at 3090 nM.
On to `Cc1cccc(C#Cc2ccccc2)n1` [MPEP, 2-methyl-6-(phenylethynyl)pyridine], for which the “inhibition of NMDA receptor activity” value in data set [1] is given as “directly inhibit”. For the same compound, at mGluR4, the “modulation of mGluR4” value is reported as “positive allosteric modulator”. The “effect in the marble burying model” value in data set [2] was “effective”.
Turning to `Cc1csc(NC(=O)c2cc(C(=O)c3cncc(F)c3)cc3cccnc23)n1`, the IC50 on rat mGluR5 came out at 444 nM.
`Cc1csc(NC(=O)c2cc(C(O)c3cncc(F)c3)cc3cccnc23)n1` (stereo not drawn): the half-inhibitory concentration (IC50) on rat mGluR5 was more than 30000 nM.
Still for that read-out and setting: then `O=C(c1cncc(F)c1)c1cc(C(=O)Nc2ccc(Cl)cn2)c2ncccc2c1`, with more than 30000 nM; and `Cc1cccc(NC(=O)c2cc(C(=O)c3cncc(F)c3)cc3cccnc23)n1`, with 1620 nM.
With `CN1CC(=O)N=C1NC(=O)Nc1cccc(Cl)c1` [fenobam, 1-(3-chlorophenyl)-3-(1-methyl-4-oxo-4,5-dihydro-1H-imidazol-2-yl)urea], the “effect in the marble burying model” value in data set [2] is recorded as “effective”.
With `O=C(c1cncnc1)c1cc(C(=O)Nc2cccc(F)n2)c2ncccc2c1`, at rat mGluR5, the IC50 is 645 nM.
For the compound `O=C(c1cncc(F)c1)c1cc(C(=O)Nc2cccc(Cl)n2)c2ncccc2c1`, the IC50 on rat mGluR5 is more than 30000 nM.
Same read-out and setting: the value for `O=C(c1cncnc1)c1cc(C(=O)Nc2ccc(F)cn2)c2ncccc2c1` was 106 nM.
Regarding `Cc1cccc(NC(=O)c2cc(C(=O)c3cncnc3)cc3cccnc23)n1`, the concentration for half-maximal inhibition (IC50) on rat mGluR5 turned out to be 163 nM.
Turning to `O=C(Nc1ccc(F)cn1)c1cc(C(F)(F)c2cncnc2)cc2cccnc12`, on rat mGluR5, the half-maximal inhibitory concentration (IC50) was 109 nM.
With `O=C(c1cncnc1)c1cc(C(=O)Nc2cccc(Cl)n2)c2ncccc2c1`, the concentration for half-maximal inhibition (IC50) on rat mGluR5 came out at 696 nM.
In the case of `COC(c1cncnc1)c1cc(C(=O)Nc2nc(C)cs2)c2ncccc2c1` (stereo not drawn), the half-inhibitory concentration (IC50) at rat mGluR5 was found to be 552 nM.
Still for that read-out and setting: the value for `O=C(c1cncnc1)c1cc(C(=O)Nc2ccc(Cl)cn2)c2ncccc2c1` was 148 nM; that for `Cc1csc(NC(=O)c2cc(C(=O)c3cncnc3)cc3cccnc23)n1` was 73 nM; that for `CC(c1cncnc1)c1cc(C(=O)Nc2ccc(F)cn2)c2ncccc2c1` (stereo not drawn) was 540 nM.
Same read-out and setting: then `O=C(c1cncnc1)c1cc(C(=O)Nc2ccc(F)cn2)c2nccnc2c1`, with more than 10000 nM.
For the compound `Cc1nc(C#Cc2cccnc2)cs1` [MTEP, 3-[(2-methyl-1,3-thiazol-4-yl)ethynyl]pyridine], the “inhibition of cytochrome P450 1A2” value on cytochrome P450 1A2 was “potent inhibitor”. Besides, in data set [3], the clearance entry is “efficiently cleared”.
Turning to `Cc1csc(NC(=O)c2cc(C(F)c3cncnc3)cc3cccnc23)n1` (stereo not drawn), the IC50 on rat mGluR5 amounted to 127 nM.
Take `Cc1csc(NC(=O)c2cc(C(O)c3cncnc3)cc3cccnc23)n1` (stereo not drawn): the IC50 at rat mGluR5 was more than 10000 nM.
With `O=C(Nc1ccc(F)cn1)c1cc(C(F)c2cncnc2)cc2cccnc12` (stereo not drawn), the concentration for half-maximal inhibition (IC50) on rat mGluR5 worked out at 83 nM.
On to `O=C(c1cncnc1)c1cc(C(=O)Nc2ccc(Cl)cn2)c2nccnc2c1`, for which, on rat mGluR5, the IC50 was 176 nM.
Take `Cc1csc(NC(=O)c2cc(C(=O)c3cncnc3)cc3nccnc23)n1`: at rat mGluR5, the 50% inhibitory concentration (IC50) was determined as 380 nM.
As to `Cc1csc(NC(=O)c2cc(C(C)c3cncnc3)cc3cccnc23)n1` (stereo not drawn), the half-maximal inhibitory concentration (IC50) at rat mGluR5 came out at 258 nM.
